According to ChEMBL document CHEMBL1201862, “PubChem BioAssay data set” (2004):
Blank lines part the entries; values can stand above or below the compound they belong to. Active and inactive are the calls of the source.

Assays:
[1] = molecular target: Type-1 angiotensin II receptor (Homo sapiens, UniProt P30556); assay: agonist activity at AGTR1 – cell-based, uHTS hits, selectivity assay for APJ receptor agonist project, dose response (AID 488865); type: functional;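 further: beta-arrestin recruitment to AT1 measured by enzyme fragment complementation luminescence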
Chain of Type-1 angiotensin II receptor (P30556 whole entry, the tested form may be a part): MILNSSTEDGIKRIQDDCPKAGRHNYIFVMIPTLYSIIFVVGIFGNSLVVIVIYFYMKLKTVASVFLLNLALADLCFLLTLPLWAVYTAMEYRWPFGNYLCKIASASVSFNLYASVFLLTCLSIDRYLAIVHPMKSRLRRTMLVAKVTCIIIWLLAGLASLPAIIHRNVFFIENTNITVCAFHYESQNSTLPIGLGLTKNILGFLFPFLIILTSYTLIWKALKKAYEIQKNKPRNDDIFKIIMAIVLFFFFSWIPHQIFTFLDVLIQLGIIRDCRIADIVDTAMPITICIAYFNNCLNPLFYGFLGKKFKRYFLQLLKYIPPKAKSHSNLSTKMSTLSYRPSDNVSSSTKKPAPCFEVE

[2] = molecular target: DNA damage-inducible transcript 3 protein (Mus musculus, UniProt P35639); type: functional, Cricetulus griseus
Chain of DNA damage-inducible transcript 3 protein (P35639 whole entry): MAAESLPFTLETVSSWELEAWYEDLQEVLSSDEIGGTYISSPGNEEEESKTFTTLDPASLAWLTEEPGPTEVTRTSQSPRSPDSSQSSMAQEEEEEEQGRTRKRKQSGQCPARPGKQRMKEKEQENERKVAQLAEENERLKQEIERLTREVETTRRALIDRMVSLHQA

[3] = molecular target: T1, Tyrosine-protein phosphatase non-receptor type 7 (Homo sapiens, UniProt P35236); assay: SAR analysis of chemical inhibitors of HePTP using a Fluorescent assay - Set 2. [Related pubchem assays (depositor defined):AID1059, AID1077, AID1661, AID2085, AID521]; type: functional
T1 sequence (P35236 whole entry): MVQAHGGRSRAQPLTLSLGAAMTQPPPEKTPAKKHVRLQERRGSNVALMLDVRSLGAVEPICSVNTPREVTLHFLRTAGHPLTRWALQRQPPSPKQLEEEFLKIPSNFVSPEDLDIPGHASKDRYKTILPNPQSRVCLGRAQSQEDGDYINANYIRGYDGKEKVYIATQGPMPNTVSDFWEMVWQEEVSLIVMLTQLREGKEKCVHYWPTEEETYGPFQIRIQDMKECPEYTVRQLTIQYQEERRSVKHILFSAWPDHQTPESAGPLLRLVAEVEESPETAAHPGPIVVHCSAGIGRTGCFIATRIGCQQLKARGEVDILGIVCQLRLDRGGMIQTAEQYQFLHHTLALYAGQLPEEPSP

[4] = molecular target: Dual specificity protein phosphatase 3 (Homo sapiens, UniProt P51452); assay: SAR VHR1 Fluorescent Assay for In Vitro dose response studies Set 2. [Related pubchem assays (depositor defined):AID1654, AID1661, AID1878]; type: functional
Chain of Dual specificity protein phosphatase 3 (P51452 whole entry): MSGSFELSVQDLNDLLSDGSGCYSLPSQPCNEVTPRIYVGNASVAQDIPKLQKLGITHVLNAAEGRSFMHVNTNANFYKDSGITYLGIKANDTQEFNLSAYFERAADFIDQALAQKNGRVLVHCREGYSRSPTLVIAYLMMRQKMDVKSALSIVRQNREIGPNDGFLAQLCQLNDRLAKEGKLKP

Cannabinoid receptor 1 [5] = molecular target: T2, Cannabinoid receptor 1 (Homo sapiens, UniProt P21554); assay: SAR analysis of antagonists of the Cannabinoid Receptor 1 using an Image-Based Assay - Set 3. [Related pubchem assays (depositor defined):AID1961, AID1965]; type: functional
T2 sequence (P21554 whole entry): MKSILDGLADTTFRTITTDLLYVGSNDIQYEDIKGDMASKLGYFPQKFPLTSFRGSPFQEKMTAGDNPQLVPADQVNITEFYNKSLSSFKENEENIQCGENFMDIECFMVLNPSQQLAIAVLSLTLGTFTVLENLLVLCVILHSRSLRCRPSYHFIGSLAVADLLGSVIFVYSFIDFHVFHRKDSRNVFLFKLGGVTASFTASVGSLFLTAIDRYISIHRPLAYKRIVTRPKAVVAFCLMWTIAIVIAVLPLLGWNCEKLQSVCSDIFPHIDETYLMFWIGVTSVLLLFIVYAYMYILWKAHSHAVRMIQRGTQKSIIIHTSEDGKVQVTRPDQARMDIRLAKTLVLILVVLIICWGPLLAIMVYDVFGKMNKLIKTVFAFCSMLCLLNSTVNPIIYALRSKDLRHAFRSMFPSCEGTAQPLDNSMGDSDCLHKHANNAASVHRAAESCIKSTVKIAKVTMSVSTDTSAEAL

Cannabinoid receptor 2 [6] = molecular target: T3, Cannabinoid receptor 2 (Homo sapiens, UniProt P34972); assay: SAR analysis of antagonists of the Cannabinoid Receptor 2 using an Image-Based Assay - Set 2. [Related pubchem assays (depositor defined):AID1961, AID1965]; type: functional
T3 sequence (P34972 whole entry): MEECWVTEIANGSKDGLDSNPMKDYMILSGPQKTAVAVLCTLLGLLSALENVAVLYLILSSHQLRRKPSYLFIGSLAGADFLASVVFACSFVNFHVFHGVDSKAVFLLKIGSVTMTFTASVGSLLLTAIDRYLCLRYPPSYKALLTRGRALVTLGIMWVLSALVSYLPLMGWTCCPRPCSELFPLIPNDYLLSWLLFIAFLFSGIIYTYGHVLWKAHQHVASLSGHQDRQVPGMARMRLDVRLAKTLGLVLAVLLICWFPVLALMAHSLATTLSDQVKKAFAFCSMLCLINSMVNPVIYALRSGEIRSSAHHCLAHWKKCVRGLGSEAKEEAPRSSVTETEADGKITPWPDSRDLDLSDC

[7] = molecular target: G-protein coupled receptor 55 (Homo sapiens, UniProt Q9Y2T6); assay: SAR analysis of selective Agonists of GPR55 using an Image-Based Assay - Set 2. [Related pubchem assays (depositor defined):AID1961, AID1965]; type: functional
Chain of G-protein coupled receptor 55 (Q9Y2T6 whole entry): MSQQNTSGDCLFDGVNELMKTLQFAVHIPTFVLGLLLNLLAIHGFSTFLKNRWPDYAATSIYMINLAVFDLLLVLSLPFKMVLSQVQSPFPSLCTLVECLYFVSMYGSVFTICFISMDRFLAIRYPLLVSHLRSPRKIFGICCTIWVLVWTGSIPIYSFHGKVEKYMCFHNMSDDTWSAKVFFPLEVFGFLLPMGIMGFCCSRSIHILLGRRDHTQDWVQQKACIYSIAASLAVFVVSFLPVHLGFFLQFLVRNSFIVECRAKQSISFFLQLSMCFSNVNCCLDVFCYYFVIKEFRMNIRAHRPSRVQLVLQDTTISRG

[8] = molecular target: T4, G-protein coupled receptor 35 (Homo sapiens, UniProt Q9HC97); assay: SAR analysis of Agonists of the GPR35 Receptor using an Image-Based Assay - Set 3. [Related pubchem assays (depositor defined):AID1961, AID1965]; type: functional
T4 sequence (Q9HC97 whole entry): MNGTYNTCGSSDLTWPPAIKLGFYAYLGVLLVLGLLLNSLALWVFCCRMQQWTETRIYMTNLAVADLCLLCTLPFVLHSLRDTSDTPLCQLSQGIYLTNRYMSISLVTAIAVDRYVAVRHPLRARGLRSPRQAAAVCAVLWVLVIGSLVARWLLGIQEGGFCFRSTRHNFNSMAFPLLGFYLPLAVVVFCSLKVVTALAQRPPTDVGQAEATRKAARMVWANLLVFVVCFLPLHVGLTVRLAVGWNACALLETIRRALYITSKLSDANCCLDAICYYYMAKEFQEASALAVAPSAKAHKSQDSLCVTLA

[9] = molecular target: T4, G-protein coupled receptor 35; assay: SAR analysis of Antagonists of the GPR35 Receptor using an Image-Based Assay - Set 4. [Related pubchem assays (depositor defined):[…]]; type: functional
Cannabinoid receptor 2 [10] = molecular target: T3, Cannabinoid receptor 2; assay: SAR analysis of agonists of the Cannabinoid Receptor 2 using an Image-Based Assay - Set 2. [Related pubchem assays (depositor defined):AID1961, AID1965]; type: functional
Cannabinoid receptor 1 [11] = molecular target: T2, Cannabinoid receptor 1; assay: SAR analysis of agonists of the Cannabinoid Receptor 1 using an Image-Based Assay - Set 3. [Related pubchem assays (depositor defined):AID1961, AID1965]; type: functional
[12] = molecular target: T5, Ubiquitin-conjugating enzyme E2 N (Homo sapiens, UniProt P61088); type: functional;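 further: Dose-response confirmation in a TR-FRET assay detecting UBC13-driven polyubiquitin chain formation, inhibition measured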
T5 sequence (P61088 whole entry): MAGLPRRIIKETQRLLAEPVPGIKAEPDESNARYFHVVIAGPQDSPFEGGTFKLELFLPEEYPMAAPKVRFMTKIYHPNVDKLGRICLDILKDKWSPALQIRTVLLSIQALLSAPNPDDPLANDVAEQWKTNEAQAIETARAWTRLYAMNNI

[13] = molecular target: Dual specificity tyrosine-phosphorylation-regulated kinase 1A (Rattus norvegicus, UniProt Q63470); type: biochemical, Homo sapiens
[14] = Luminescence Cell-Based Dose Retest to Confirm Inhibitors of Cancer Stem Cells. [Related pubchem assays (depositor defined):AID2717, AID2721]; type: functional, Homo sapiens; details: Homo sapiens
Integrin alpha-4 = Integrin alpha-4 (Homo sapiens, UniProt P13612); assay: allosteric modulators of alpha4 integrin VLA-4 – cell-based, LIBS antibody binding, flow cytometry, SAR follow-up (AID 488791); type: functional
Chain of Integrin alpha-4 (P13612 whole entry): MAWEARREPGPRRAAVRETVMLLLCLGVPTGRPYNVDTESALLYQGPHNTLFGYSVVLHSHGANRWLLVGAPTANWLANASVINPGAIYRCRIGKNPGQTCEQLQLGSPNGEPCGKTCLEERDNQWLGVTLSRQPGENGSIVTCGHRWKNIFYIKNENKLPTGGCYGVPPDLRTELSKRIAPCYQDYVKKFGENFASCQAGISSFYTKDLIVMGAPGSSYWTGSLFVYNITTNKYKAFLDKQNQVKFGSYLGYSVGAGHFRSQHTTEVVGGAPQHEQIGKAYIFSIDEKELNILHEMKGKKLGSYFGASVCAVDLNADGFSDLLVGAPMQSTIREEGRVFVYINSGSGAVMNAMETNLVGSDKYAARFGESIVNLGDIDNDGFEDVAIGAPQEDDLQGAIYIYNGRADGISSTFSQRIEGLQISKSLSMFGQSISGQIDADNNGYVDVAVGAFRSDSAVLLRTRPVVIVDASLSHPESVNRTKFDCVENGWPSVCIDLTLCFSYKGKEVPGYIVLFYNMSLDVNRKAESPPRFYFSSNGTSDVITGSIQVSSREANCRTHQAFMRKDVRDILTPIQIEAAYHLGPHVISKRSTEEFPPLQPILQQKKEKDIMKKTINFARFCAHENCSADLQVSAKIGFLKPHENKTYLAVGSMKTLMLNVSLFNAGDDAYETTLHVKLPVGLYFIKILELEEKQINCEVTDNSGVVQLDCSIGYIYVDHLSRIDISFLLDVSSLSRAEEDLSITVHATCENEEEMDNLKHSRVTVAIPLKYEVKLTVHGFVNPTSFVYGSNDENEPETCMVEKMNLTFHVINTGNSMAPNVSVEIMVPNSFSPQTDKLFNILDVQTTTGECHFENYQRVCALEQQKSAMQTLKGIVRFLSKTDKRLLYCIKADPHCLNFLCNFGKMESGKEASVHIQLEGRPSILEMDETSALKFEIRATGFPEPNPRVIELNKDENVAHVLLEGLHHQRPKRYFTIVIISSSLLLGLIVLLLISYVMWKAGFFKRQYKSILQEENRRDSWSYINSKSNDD

Hexokinase = Hexokinase (Trypanosoma brucei, UniProt Q38C41); assay: Confirmation assay for inhibitors of Trypanosoma brucei hexokinase 1-Analogue-first series. [Related pubchem assays (depositor defined):AID1430, AID1632, AID2516, AID2560, AID2579, AID2600, AID449725, AID492951]; type: functional
Chain of Hexokinase (Q38C41 whole entry): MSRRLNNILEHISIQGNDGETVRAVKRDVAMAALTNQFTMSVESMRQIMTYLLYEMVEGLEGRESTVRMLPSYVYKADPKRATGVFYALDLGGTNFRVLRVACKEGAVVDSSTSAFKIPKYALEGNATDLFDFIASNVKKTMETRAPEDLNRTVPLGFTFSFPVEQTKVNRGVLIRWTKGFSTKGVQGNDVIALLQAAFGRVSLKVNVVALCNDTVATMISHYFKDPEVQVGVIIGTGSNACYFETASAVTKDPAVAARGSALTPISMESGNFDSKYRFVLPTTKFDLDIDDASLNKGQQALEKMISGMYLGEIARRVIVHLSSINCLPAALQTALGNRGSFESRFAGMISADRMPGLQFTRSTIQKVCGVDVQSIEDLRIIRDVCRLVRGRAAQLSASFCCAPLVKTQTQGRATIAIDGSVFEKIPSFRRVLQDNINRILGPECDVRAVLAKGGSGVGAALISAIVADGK

- EC50 [1]: > 100 µM (inactive)
SMILES: CCCCC1=CC2=CC(=O)C(C)(OC(=O)CC)C(=O)C2=CN1C1CCCCC1 (stereo unspecified)

SMILES: CCOc1cccc(CN2CCN(c3cccc(C(F)(F)F)c3)CC2)c1O
- Absolute IC50 (CHOP) [2]: 10 µM

SMILES: COc1ccc(N2CCN(C(=O)Nc3ccc(S(N)(=O)=O)cc3)CC2)cc1
- IC50 [3]: 51 µM (active)
- IC50 [4]: > 100 µM (inactive)

- IC50 (Cannabinoid receptor 1 [5]): 15.6 µM (inactive)
- IC50 (Cannabinoid receptor 2 [6]): > 32 µM (inactive)
- EC50 [7]: 1.53 µM (active)
- EC50 [8]: > 32 µM (inactive)
- IC50 [9]: > 32 µM (inactive)
- EC50 (Cannabinoid receptor 2 [10]): > 32 µM (inactive)
- EC50 (Cannabinoid receptor 1 [11]): > 32 µM (inactive)
SMILES: Cc1cccc(N2CCN(C(=O)c3cc(S(=O)(=O)N(C)C)ccc3Cl)CC2)c1C

SMILES: COc1cccc(-c2sc3ccccc3c2-c2ccc(OCCN3CCCC3)cc2)c1
- IC50 [12]: > 20 µM (inactive)
- AC50 [13]: 49.2 µM (active)
- AC50 [14]: 2.58 µM (active)
- EC50 (Integrin alpha-4): > 42.9 µM (inactive)

SMILES: COc1ccc(C(=O)NC(C(=O)O)c2ccccc2)cc1 (stereo unspecified)
- IC50 (Hexokinase): > 25 µM (inactive)
